From US20070254914A1, “Low-concentration atropine solution for preventing myopia progression and preparing method thereof” (Non-Profit Organization Chang Gung Memorial Hospital, priority 2006, published 2007)
Counter-ions that a name gives are not always drawn. Like-named read-outs stand apart in the source and are kept apart here.

Assays:
mydriasis phenomenon = assay: durations of mydriasis phenomenon in administration of different ingredients for preventing myopia progression; assay type: in vivo, human
[1] = system: patients (myopia progression); assay: study of the present invention in 2006: myopia progression in patients treated with 0.05% atropine solution; assay type: in vivo, human; conditions: for Increased diopter (D) per year: 0.05% (w/w) atropine solution
Text: With regard to Table 2, 21 patients (42 eyes) were subject in the treatment group and 36 patients were subject in the control group. All patients are residents in southern Taiwan. Male-female ratios in the treatment group and the control group were respectively 12:9 and 18:18.
Wherein, an average age in the treatment group was 8.38±1.47 years old (range from 6 to 12 years old) and an average age in the control group was 8.11±1.12 years old (range from 6 to 12 years old).
Treating periods of the treatment group and the control group in average are respectively 19.95±9.04 months and 21.47±10.02.

[2] = system: patients (accommodation capability of eyes); assay: influences on accommodation capability with administration of different atropine concentrations; assay type: in vivo, human
Description: Moreover, the myopia exacerbation also substantially relates to visual distance during near working that the patient continuously overuses high accommodation capability of eyes.
With regard to Table 4, 21 patients were treated with 0.05% (w/w) atropine solution in a first treatment group, 9 patients were treated with 0.1% (w/w) atropine solution in a second treatment group and 6 patients were treated with blank solution in the control group. Male-female ratios in the treatment groups and the control group were respectively […] in the first treatment group, 5:4 in the second treatment group and 3:3 in the control group.
Wherein, average ages were respectively 9.4±1.7 years old in the first treatment group, 11±1.7 years old in the second treatment group and 10±2 years old in the control group.
Treating periods of the treatment groups in average were respectively 22.43±12.9 months in the first treatment group and 25.88±12.47 months in the second treatment group.
Observation timing after applying the atropine solutions were respectively 16.37±2.53 hours in the first treatment group and 17.11±1.9 hours in the second treatment group.

[3] = system: patients (pupil diameter); assay: mydriasis phenomenon (pupil diameter) after administration of different atropine concentrations; assay type: in vivo, human
patients (photophobia) = assay: photophobia ratios with administration of different atropine concentrations; assay type: in vivo, human
Text: According to following Table 6, patients treated with 0.05% (w/w) atropine solution suffered the photophobia in a lower ratio in comparison with ones treated with 0.1% (w/w) atropine solution.

Myopic Children = conditions: Shin's study 1999, cited from earlier work
[4] = marketed concentrations as listed in Table 7 (Soln/Ointment 0.5%-3%)

CN1[C@@H]2CC[C@H]1C[C@@H](OC(=O)C(CO)c1ccccc1)C2 (stereo partly shown) [Atropine sulfate]
Occurring time (mydriasis) (mydriasis phenomenon; Soln, 0.05%): 45 to 120 min
Duration of mydriasis (mydriasis phenomenon; Soln, 0.05% (w/w)): 0.5 to 0.75 days
Duration of mydriasis (mydriasis phenomenon; [4]): 7 to 14 days
Occurring time (mydriasis) (mydriasis phenomenon; [4]): 45 to 120 min

CN1[C@@H]2CC[C@H]1C[C@@H](OC(=O)C(CO)c1ccccc1)C2 (stereo partly shown) [Atropine, atropine]
Increased diopter (D) per year ([1]; 1st (yearly follow-up)): 0.34(D/yr)
Increased diopter (D) per year ([1]; 2nd (yearly follow-up)): 0.32(D/yr)
Increased diopter (D) per year ([1]; 3rd (yearly follow-up)): 0.14(D/yr)
Increased diopter (D) per year ([1]; All (average)): 0.29(D/yr)
Myopia progression ([1]; 0.05% atropine solution, 21 patients (42 eyes), 6 to 12 years old, treating period 19.95±9.04 months): 0.28(diopter/yr)
Accommodation capability ([2]; 0.05% atropine solution, observed 16.37±2.53 hours after applying, treating period 22.43±12.9 months): 2.45(D)
Accommodation capability ([2]; 0.1% atropine solution, observed 17.11±1.9 hours after applying, treating period 25.88±12.47 months): 2.22(D)
Pupil diameter ([3]; 0.05% atropine solution): 5.52 mm
Pupil diameter ([3]; 0.1% atropine solution): 6.10 mm
Photophobia ratio (patients (photophobia); 0.05% atropine solution): 66.67%
Photophobia ratio (patients (photophobia); 0.1% atropine solution): 85.71%
Duration of mydriasis (mydriasis phenomenon; 1% (w/w) atropine solution): 7 to 14 days
Duration of mydriasis (mydriasis phenomenon; Soln, 0.05% (w/w), listed as atropine): 0.5 to 0.75 days
Myopia progression (Myopic Children; 0.1% atropine solution): 0.47 diopter/yr
Myopia progression (Myopic Children; 0.25% atropine solution): 0.45 diopter/yr
Myopia progression (Myopic Children; 0.5% atropine solution): 0.04 diopter/yr

CN(C)CCOC(=O)C(c1ccccc1)C1(O)CCCC1 (stereo not shown) [Cyclopentolate Hydrochloride]
Duration of mydriasis (mydriasis phenomenon; human, in vivo): 2 days
Occurring time (mydriasis) (mydriasis phenomenon; human, in vivo): 30 to 60 min
